PubChem BioAssay (NCI)
“And” between values parts separate entries of the source, which are not always exact repeats. Equal values may be shown once.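 Protocol summary: plate cells (96-well), add compound at 5 concentrations, incubate 48 h, interpolate endpoints linearly. Here, GI50 denotes the concentration required for 50% inhibition of growth. The concentration for full growth arrest is given as TGI.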

Legend:
Assay in all cases: NCI tumour cell line growth inhibition, 48 h
[1] = test system: K-562 leukemia
[2] = test system: PC-3 prostate
[3] = test system: UACC-257 melanoma
[4] = test system: TK-10 renal
[5] = test system: SK-MEL-28 melanoma
[6] = test system: OVCAR-3 ovarian
[7] = test system: MDA-MB-231 breast
[8] = test system: HS 578T breast
[9] = test system: NCI-H23 lung
[10] = test system: CCRF-CEM leukemia

| SMILES | TGI [1] [µM] | TGI [2] | TGI [3] | TGI [4] [µM] | TGI [5] [µM] | TGI [6] [µM] | TGI [7] [µM] | TGI [8] [µM] | TGI [9] [µM] | TGI [10] [µM] | GI50 [1] [µM] | GI50 [2] [µM] | GI50 [3] [µM] | GI50 [4] [µM] | GI50 [5] [µM] | GI50 [7] [µM] | GI50 [8] [µM] | GI50 [9] [µM] | GI50 [10] [µM] | GI50 [6] [µM] |
| --- | --- | --- | --- | --- | --- | --- | --- | --- | --- | --- | --- | --- | --- | --- | --- | --- | --- | --- | --- | --- |
| CCOC(=O)/C(C)=C\[C@@]1(C)O[C@@H](C)[C@@](C)(OC(C)=O)[C@@H]1OC(C)=O | > 100 | > 100 µM | > 100 µM | > 100 | > 100 | > 100 | > 100 | > 100 | 77.1 | > 100 |  |  |  |  |  |  |  |  |  |  |
| Fc1c(F)c(C(F)(F)F)c(F)c(F)c1N/N=C\c1c[nH]c2ccccc12 | 10.5 | 8.01 µM | 14.3 µM | 15.6 | 20 | 4.7 | 12.7 | 28.9 | 16.4 | 4.73 |  |  |  |  |  |  |  |  |  |  |
| Cc1nn2c(=O)c([N+](=O)[O-])c(/C=C/c3ccccc3)nc2s1 | > 26.7 | > 100 µM | > 100 µM | 41.3 | 64.2 | 26.5 | > 100 | > 100 | > 100 | 7.65 |  |  |  |  |  |  |  |  |  |  |
| O=C(NC(C(F)(F)F)(C(F)(F)F)P(=O)(c1ccccc1)c1ccccc1)C(C(F)(F)F)C(F)(F)F | > 100 | 80.8 µM | 82.2 µM | 72.7 | > 100 | 69.7 | 59.2 | > 100 | 64.2 | > 100 |  |  |  |  |  |  |  |  |  |  |
| Fc1cc(C2=C[C@H](c3ccc(Cl)cc3)NC(=S)N2)c(Cl)cc1Cl | > 100 | > 100 µM | > 100 µM | > 100 | > 100 | > 100 | 88.7 | > 100 | > 100 | > 100 |  |  |  |  |  |  |  |  |  |  |
| CC1=C(C(=O)Nc2cccc3c2C(=O)NC3=O)CC(C(=O)Nc2cccc3c2C(=O)NC3=O)=C(C)N1 | > 100 | > 100 µM | > 100 µM | > 100 | > 100 | > 100 | > 100 | > 100 | > 100 | > 100 |  |  |  |  |  |  |  |  |  |  |
| Cc1c2cnccc2c(C)c2c1[nH]c1ccc(O)cc12 | > 10 | > 10 µM | > 10 µM | > 10 | 9.94 | 3.91 | 4.13 | > 10 | 8.25 | > 10 |  |  |  |  |  |  |  |  |  |  |
| O=C(O)C1C(C(=O)O)C2C(=O)C=CC1N2Cc1ccccc1 (configuration not stated) | > 100 | 18.8 µM | 11.6 µM | 11.4 | 15.5 | 10.1 | 14.4 | 6.1 | 7.71 | 2.75 |  |  |  |  |  |  |  |  |  |  |
| NC1CC(=O)c2cc(Cl)sc21 (configuration not stated) | > 100 | > 100 µM | > 100 µM | > 100 | > 100 | > 100 | > 100 | > 100 | > 100 | > 100 |  |  |  |  |  |  |  |  |  |  |
| c1csc(-c2cscc2-c2ccsc2)c1 | > 100 | > 77.9 µM | > 100 µM | > 100 | > 100 | 56.1 | > 100 | > 31.6 | > 100 | > 100 |  |  |  |  |  |  |  |  |  |  |
| COc1ccc(/C=C(\Cl)c2ccc(OC)c(OC)c2)cc1OC | > 100 | > 100 µM | > 100 µM | > 100 | > 100 | > 100 | > 100 | > 100 | > 100 | > 100 |  |  |  |  |  |  |  |  |  |  |
| COc1cc2cc(C(=O)N3CC(CCl)c4c3cc(NC(=O)C(C)(C)c3ccccc3[N+](=O)[O-])c3ccccc43)[nH]c2c(OC)c1OC (configuration not stated) |  | 35.9 µM and 206 µM | 14.1 µM and 75.6 µM |  |  | 222 |  |  |  |  | 17.9 | 19.4 | 18.9 | 18.3 | 86.7 | > 600 | 270 | 8.67 | 51.2 |  |
| COc1ccc(Br)c2c1CC(C(=O)O)CC2 (configuration not stated) | > 100 | > 100 µM | > 100 µM | > 100 | > 100 | > 100 | > 100 | > 100 | > 100 | > 100 |  |  |  |  |  |  |  |  |  |  |
| O=C1c2cc3c(cc2CC12Cc1cc4c(cc1C2=O)CCCC4)CCCC3 | > 100 | > 100 µM | 82.1 µM | 75.8 | > 100 | 93.7 | 77.1 | 72.5 | > 100 | > 100 |  |  |  |  |  |  |  |  |  |  |
| Clc1cccc(Cl)c1C=NC12CC3CC(CC(C3)C1)C2 | > 10 | > 10 µM | > 10 µM | > 10 | > 10 | > 10 | > 10 | > 10 | > 10 | > 10 |  |  |  |  |  |  |  |  |  |  |
| N#CC1(C#N)C2CCCCC23OC(=N)C1(C#N)C(c1ccco1)O3 (configuration not stated) | > 100 | 64.6 µM | 34.9 µM | 36.1 | 45.6 | 33.5 | 33 | 70.4 | 70.5 | > 100 |  |  |  |  |  |  |  |  |  |  |

| SMILES | TGI [1] [µM] | TGI [2] | TGI [3] | TGI [4] [µM] | TGI [5] [µM] | TGI [6] [µM] | TGI [7] [µM] | TGI [8] [µM] | TGI [9] [µM] | TGI [10] [µM] | GI50 [1] [µM] | GI50 [2] [µM] | GI50 [3] [µM] | GI50 [4] [µM] | GI50 [5] [µM] | GI50 [7] [µM] | GI50 [8] [µM] | GI50 [9] [µM] | GI50 [10] [µM] | GI50 [6] [µM] |
| --- | --- | --- | --- | --- | --- | --- | --- | --- | --- | --- | --- | --- | --- | --- | --- | --- | --- | --- | --- | --- |
| Cc1nc2sc(CCl)nn2c(=O)c1Cl | 28.1 | 25.1 µM | 29.7 µM | 25 | 27.3 | 29.5 | 36.4 | 47.3 | 33.3 | 24.9 |  |  |  |  |  |  |  |  |  |  |
| C=C1C(=O)C([Si](C)(C)C)=C2C=C(C)C3(CC3)C12C (configuration not stated) | 54.1 | 42.5 µM | > 100 µM | > 100 | > 100 | > 100 | 84.6 | > 100 | > 100 | 11 |  |  |  |  |  |  |  |  |  |  |
| CSc1nc2ccccc2c(=O)n1/N=C1\C(=O)N(CN2CCCCC2)c2ccc(Cl)cc21 | > 100 | > 100 µM | 54.2 µM | > 100 | > 100 | > 100 | > 100 | > 100 | > 100 | > 100 |  |  |  |  |  |  |  |  |  |  |
| O=c1c2cc(S(=O)(=O)Nc3ccccc3Cl)ccc2ncn1NS(=O)(=O)c1ccc(Br)cc1 | > 37.5 | > 37.5 µM | > 37.5 µM | > 37.5 | > 37.5 | > 37.5 | > 37.5 | > 37.5 | > 37.5 | > 37.5 |  |  |  |  |  |  |  |  |  |  |
| COc1ccc2c(c1)CC[C@@H]1[C@@H]2CC[C@]2(C)C(=O)C3(CCCCC3)C[C@@H]12 | > 100 | > 100 µM | > 100 µM | > 100 | > 100 | > 100 | > 100 | > 100 | > 100 | > 100 | > 100 | > 100 | 44.8 | > 100 | > 100 | > 100 | 88.1 | > 100 | > 100 | > 100 |
| Cc1occc1C(=S)Nc1ccc(Cl)c(C(=O)OCC(F)(F)F)c1 | 59.1 | 57.8 µM | 55.9 µM | 43 | 42.6 | 81.4 | 35.2 | > 100 | 51.4 | 57.7 |  |  |  |  |  |  |  |  |  |  |
| CC(C)OP(=O)(OC(C)C)C(C(C)C)N(C)/C(N)=N\C1=NC(C(F)(F)F)(C(F)(F)F)N=C(C(C(F)(F)F)C(F)(F)F)O1 (configuration not stated) | 5.11 | 8.42 µM | 10.3 µM | 13.6 | 12.4 | 31.6 | 4.33 | > 100 | 14.6 | 4.88 |  |  |  |  |  |  |  |  |  |  |
| Oc1ccccc1/C=N/Nc1nnc2c3ccccc3c3ccccc3c2n1 | > 100 | > 100 µM | 64.7 µM | > 100 | > 100 | 44.2 | > 100 | > 100 | > 100 | > 100 |  |  |  |  |  |  |  |  |  |  |
| CCOC(=O)NC(C(F)(F)F)(C(F)(F)F)P(=O)(OC(C)C)OC(C)C | > 100 | > 100 µM | > 100 µM | > 100 | > 100 | > 100 | > 100 | > 100 | > 100 | > 100 |  |  |  |  |  |  |  |  |  |  |
| NC(=O)C(Nc1c(Cl)cccc1Cl)c1cc2cc(Br)ccc2nc1Cl (configuration not stated) | > 100 | > 100 µM | > 100 µM | 96.3 | > 100 | > 100 | > 100 | > 100 | > 100 | > 100 |  |  |  |  |  |  |  |  |  |  |
| CCOC(=O)/C(N=Nc1ccc(-n2c(C)nc3ccccc3c2=O)cc1)=C(/C)O | > 100 | > 100 µM | > 100 µM | > 100 | 71.6 | 53.1 | > 100 | 63.6 | > 100 | > 100 |  |  |  |  |  |  |  |  |  |  |
| CCCCCC(=O)Nc1n[nH]nc1C(N)=O | > 100 | > 100 µM | > 100 µM | > 100 | > 100 | > 100 | > 100 | > 100 | > 100 | > 100 |  |  |  |  |  |  |  |  |  |  |
| O=c1[nH]c(=O)n(C2OC(CO)C(O)C(F)C2O)cc1F (configuration not stated) | > 100 | > 100 µM | > 100 µM | > 100 | > 100 | > 100 | > 100 | > 100 | > 100 | > 100 |  |  |  |  |  |  |  |  |  |  |
| C=C(c1ccccc1)C1ON(C)CCc2cc(OC)c(OC)cc21 (configuration not stated) | > 100 | > 100 µM | > 100 µM | > 100 | > 100 | > 100 | > 100 | > 100 | > 100 | > 100 |  |  |  |  |  |  |  |  |  |  |
| CC1C2CC(CC(=O)N2)C1(C)C (configuration not stated) | > 100 | > 100 µM | > 100 µM | > 100 | > 100 | > 100 | > 100 | > 100 | > 100 | > 100 |  |  |  |  |  |  |  |  |  |  |
| CC1(C)C(=O)N(O)C(C)(C)N1O | > 10 | > 10 µM | > 10 µM | > 10 | > 10 | > 10 | > 10 | > 10 | > 10 | > 10 |  |  |  |  |  |  |  |  |  |  |
